# ± gives the expanded uncertainty stated by the source.
# Conditions: Crystal
row,Normal melting temperature,SMILES
1,29.8 ± 1.2 °C,O=C(O)C1CCCCC1 [cyclohexanecarboxylic acid]
2,24.1 ± 0.6 °C,CCCCCCCCCCCCO [dodecan-1-ol]
3,6.2 ± 0.4 °C,CCCCCCCCCCO [decan-1-ol]
4,29.8 ± 1.2 °C,O=C(O)CC1CCCCC1 [cyclohexylethanoic acid]

# — the NIST ThermoML archive (doi:10.1021/je800789b)
